Results on seven compounds are retold here after the supplement of paper PMC11061612.

Common to all, as to test: Bliss excess, mean over the matrix (fraction); higher = more synergy
One experiment concerns NCI-H2591 (Mesothelioma). The method in brief:
(§1)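 Bliss excess equals the observed combination effect minus the expected value EA + EB − EA·EB, where EA and EB are the effects of each agent alone. Combination Emax is the second-highest inhibition within the matrix. Inhibition was scaled from CellTiter-Glo 2.0 luminescence, with 0 set by vehicle wells and 1 by blank wells, after 72 hours of two-drug dosing of cells plated in 1536-well plates.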

For experiment [1], the system named is CAL-29 (Bladder Carcinoma). In outline: as §1
Experiment [2] concerns A549 (Lung Adenocarcinoma). In outline:
as §1

For the next experiment, the system named is 8-MG-BA (Glioblastoma). In outline:
as §1

Experiment [3] deals with PANC-10-05 (Pancreatic Carcinoma). The method in brief:
as §1

Experiment [4] relates to SK-MES-1 (Squamous Cell Lung Carcinoma). The method in brief: as §1
In another experiment the test system is IGR-37 (Melanoma). The method in brief: as §1
Experiment [5] has as its system NCI-H2066 (Squamous Cell Lung Carcinoma). In outline:
as §1

The test system of the next experiment is ARH-77 (Non-Cancerous). In outline:
as §1

The subject of experiment [6] is HCC1954 (Breast Carcinoma). The method in brief:
as §1

The subject of experiment [7] is TT (Thyroid Gland Carcinoma). In outline: as §1
The subject of experiment [8] is SK-MG-1 (Low Grade Glioma). The method in brief: as §1
Experiment [9] relates to A3-KAW (B-Cell Non-Hodgkin's Lymphoma). The method in brief: as §1
Experiment [10] concerns NCI-H64 (Small Cell Lung Carcinoma). In outline:
as §1

The next experiment deals with A498 (Kidney Carcinoma). In outline: as §1
Another experiment relates to GI-ME-N (Neuroblastoma). The method in brief:
as §1

The test system of experiment [11] is JSC-1 (B-Cell Non-Hodgkin's Lymphoma). In outline: as §1
Experiment [12] deals with VCaP (Prostate Carcinoma). The method in brief:
as §1

Experiment [13] concerns TT2609-C02 (Thyroid Gland Carcinoma). In outline:
as §1

A further experiment relates to LN-405 (Glioblastoma). The method in brief: as §1

For `NC1(C(=O)N[C@@H](CCO)c2ccc(Cl)cc2)CCN(c2ncnc3[nH]ccc23)CC1` [Capivasertib] + CC(=O)c1c(C)c2cnc(Nc3ccc(N4CCNCC4)cn3)nc2n(C2CCCC2)c1=O [Palbociclib] (first compound max 10 µM, 7x7, partner max 10 µM), the Bliss excess was -0.0717 with NCI-H2591 (Mesothelioma); 0.0198 in experiment [1]; -0.103 in experiment [2]; -0.0501 in the experiment with 8-MG-BA (Glioblastoma); -0.0526 in experiment [3]; 0.0137 in [4]. Further, the Bliss excess is -0.0344 in the experiment with IGR-37 (Melanoma); -0.033 in [5]; -0.0211 in the experiment with ARH-77 (Non-Cancerous); -0.0292 in experiment [6]; -0.001 in [7]; -0.0303 in experiment [8]. The Bliss excess was 0.0548 in experiment [9]; -0.0332 in experiment [10]; -0.0294 in the experiment on A498 (Kidney Carcinoma); -0.0823 in the experiment with GI-ME-N (Neuroblastoma); -0.0107 in experiment [11]; 0.0119 in experiment [12]. Moreover, the Bliss excess in [13] is -0.0398; in the experiment on LN-405 (Glioblastoma) it was -0.0295.

Consider `NC1(C(=O)N[C@@H](CCO)c2ccc(Cl)cc2)CCN(c2ncnc3[nH]ccc23)CC1` [Capivasertib] + CC(C)n1c(=O)n(C)c2cnc3cc(F)c(-c4ccc(OCCCN5CCCCC5)nc4)cc3c21 [AZD1390] (first compound max 10 µM, 7x7, partner max 0.3 µM), for which the Bliss excess in the experiment with NCI-H2591 (Mesothelioma) is -0.0804; in experiment [1], -0.0702; in experiment [2], -0.0678; with 8-MG-BA (Glioblastoma), -0.0557; in experiment [3], -0.101; in experiment [4], -0.0874. Moreover, the Bliss excess in the experiment with IGR-37 (Melanoma) was -0.0528; in experiment [5], -0.0222; in the experiment on ARH-77 (Non-Cancerous) it was -0.0509; in experiment [6], -0.056; in [7] it was -0.0945; in experiment [8], -0.111. The Bliss excess in [9] is 0.0088; in experiment [10] it was -0.0284; with A498 (Kidney Carcinoma), -0.0632; in the experiment with GI-ME-N (Neuroblastoma), -0.0993; in [11], -0.0888; in experiment [12], -0.0389. For the same compound, the Bliss excess in [13] is -0.0609; in the experiment with LN-405 (Glioblastoma), -0.0912.

`NC1(C(=O)N[C@@H](CCO)c2ccc(Cl)cc2)CCN(c2ncnc3[nH]ccc23)CC1` [Capivasertib] + CCN(CCO)CCCOc1ccc2c(Nc3cc(CC(=O)Nc4cccc(F)c4)[nH]n3)ncnc2c1 [AZD2811] (first compound max 10 µM, 7x7, partner max 1 µM): the Bliss excess is -0.0025 with NCI-H2591 (Mesothelioma); -0.0319 in [1]; -0.0365 in [2]; 0.0289 with 8-MG-BA (Glioblastoma); -0.0943 in experiment [3]; 0.0121 in experiment [4]. In addition, the Bliss excess is 0.0123 in the experiment on IGR-37 (Melanoma); -0.0641 in [5]; -0.0156 with ARH-77 (Non-Cancerous); 0.0073 in [6]; 0.002 in experiment [7]; 0.0626 in [8]. Besides, the Bliss excess in experiment [9] is -0.0369; in experiment [10], 0.0427; in the experiment on A498 (Kidney Carcinoma) it was -0.0548; with GI-ME-N (Neuroblastoma), -0.0557; in [11], 0.0082; in experiment [12], 0.0328. The figures for the Bliss excess (in [13]; in the experiment with LN-405 (Glioblastoma)) were -0.0075 and -0.0767, respectively.

With `NC1(C(=O)N[C@@H](CCO)c2ccc(Cl)cc2)CCN(c2ncnc3[nH]ccc23)CC1` [Capivasertib] + COc1nnc2ccc(N3CCC(c4ccc(OCCN5CCN(C)C(=O)[C@H]5C)cc4)CC3)nn12 [AZD5153] (first compound max 10 µM, 7x7, partner max 1 µM), the Bliss excess in the experiment on NCI-H2591 (Mesothelioma) was 0.0183; in experiment [1], 0.0937; in experiment [2], -0.0345; in the experiment on 8-MG-BA (Glioblastoma), -0.0338; in experiment [3] it was -0.0114; in experiment [4], 0.046. Besides, the Bliss excess is 0.0011 with IGR-37 (Melanoma); 0.0135 in experiment [5]; -0.0253 in the experiment on ARH-77 (Non-Cancerous); 0.0641 in experiment [6]; 0.0241 in experiment [7]; 0.0477 in experiment [8]. For the same compound, the Bliss excess is -0.0363 in experiment [9]; -0.0011 in experiment [10]; 0.0826 with A498 (Kidney Carcinoma); -0.0309 in the experiment with GI-ME-N (Neuroblastoma); -0.0312 in experiment [11]; 0.0181 in [12]. Besides, the figures for the Bliss excess (in experiment [13]; with LN-405 (Glioblastoma)) were -0.0366 and -0.013, respectively.

In the case of `NC1(C(=O)N[C@@H](CCO)c2ccc(Cl)cc2)CCN(c2ncnc3[nH]ccc23)CC1` [Capivasertib] + C[C@@H]1COCCN1C2=NC(=NC(=C2)C3(CC3)[S@](=N)(=O)C)C4=C5C=CNC5=NC=C4 [AZD6738] (first compound max 10 µM, 7x7, partner max 10 µM), the Bliss excess is 0.0021 in the experiment with NCI-H2591 (Mesothelioma); -0.069 in experiment [1]; -0.0414 in [2]; -0.004 with 8-MG-BA (Glioblastoma); -0.0946 in experiment [3]; -0.058 in [4]. In addition, the Bliss excess is 0.0138 in the experiment on IGR-37 (Melanoma); -0.0782 in experiment [5]; -0.0375 with ARH-77 (Non-Cancerous); 0.0105 in [6]; -0.0378 in experiment [7]; -0.034 in experiment [8]. Moreover, the Bliss excess in experiment [9] is -0.0165; in [10], -0.0591; in the experiment with A498 (Kidney Carcinoma), 0.0375; with GI-ME-N (Neuroblastoma), -0.0269; in [11] it was 0.0036; in [12], -0.0179. In addition, the values for the Bliss excess (in experiment [13]; in the experiment with LN-405 (Glioblastoma)) were -0.0158 and -0.0413, respectively.

For the compound `NC1(C(=O)N[C@@H](CCO)c2ccc(Cl)cc2)CCN(c2ncnc3[nH]ccc23)CC1` [Capivasertib] + Cn1cnc2c(F)c(Nc3ccc(Br)cc3Cl)c(C(=O)NOCCO)cc21 [Selumetinib] (first compound max 10 µM, 7x7, partner max 10 µM), the Bliss excess in the experiment with NCI-H2591 (Mesothelioma) is -0.0052; in experiment [1] it was -0.0058; in experiment [2], 0.0052; in the experiment on 8-MG-BA (Glioblastoma), 0.0362; in experiment [3], 0.0147; in experiment [4], 0.0571. The Bliss excess in the experiment with IGR-37 (Melanoma) is -0.0258; in experiment [5], -0.0867; in the experiment with ARH-77 (Non-Cancerous), 0.0614; in experiment [6], 0.0405; in experiment [7] it was -0.0098; in experiment [8], 0.0059. The Bliss excess in experiment [9] is 0.0622; in [10], -0.0027; in the experiment on A498 (Kidney Carcinoma), -0.0108; with GI-ME-N (Neuroblastoma), -0.0544; in experiment [11] it was 0.0954; in experiment [12] it was -0.0249. Also, the Bliss excess in experiment [13] was -0.0213; with LN-405 (Glioblastoma) it was -0.0051.

Regarding `Cc1nc(Nc2ncc(C(=O)Nc3c(C)cccc3Cl)s2)cc(N2CCN(CCO)CC2)n1` [Dasatinib] + CC(=O)Nc1cccc(-n2c(=O)n(C3CC3)c(=O)c3c(Nc4ccc(I)cc4F)n(C)c(=O)c(C)c32)c1 [Trametinib] (first compound max 2 µM, 7x7, partner max 1 µM), the Bliss excess in the experiment with NCI-H2591 (Mesothelioma) is -0.0757; in experiment [1], 0.0133; in [2] it was 0.0224; with 8-MG-BA (Glioblastoma), 0.0219; in [3], 0.0735; in experiment [4] it was 0.0198. Moreover, the Bliss excess with IGR-37 (Melanoma) is -0.121; in experiment [5], -0.0033; in the experiment on ARH-77 (Non-Cancerous), -0.0311; in [6], 0.0318; in [7], -0.0272; in [8] it was -0.0654. Moreover, the Bliss excess in [9] was 0.0863; in experiment [10] it was -0.0498; in the experiment with A498 (Kidney Carcinoma) it was -0.143; in the experiment on GI-ME-N (Neuroblastoma), -0.0849; in [11], -0.117; in [12], -0.0396. The figures for the Bliss excess (in [13]; with LN-405 (Glioblastoma)) were 0.0898 and -0.0347, respectively.
